A short description of data set [1]: Stability of background to heat and humidity (heat sensitive recording paper, Macbeth Reflection Densitometer). As to conditions: reflection density, filter #106; for Stability of Background to heat and humidity, After exposing: after 50° C. under 80% humidity; for Stability of Background to heat and humidity, Before exposing: before 50° C., 80% humidity. The source says: (§1) Example 4 (Preparation of Heat Sensitive Recording Paper)
(§2) A compound in the invention (or a reference compound)
(§3) Each above mixture was sufficiently homogenized by sand grinder to prepare Liquid A, B or C. One weight part of Liquid A, 2 weight parts of Liquid B and 1 weight part of Liquid C. were mixed to prepare a dispersion liquid to tint. The liquid was coated on white paper by applying Wire Rod No. 12, then dried to manufacture the heat sensitive recording paper.
(§4) In the preparation of Liquid C in Example 4, instead of the compound in the invention, 4-glycidyloxy-4'-isoprpoxydiphenylsulfone was taken place, the other components were same as Example 4 and the heat sensitive recording paper was similarly prepared.
(§5) A part of the heat sensitive recording papers which were prepared according to the Example 4 and the Comparative examples were heated from both sides to develop color at 150° C. by dry-heating tester (Kishino Science machinery Co.). Then, after they were placed in Incubator Controlled Humidity and Temperature at 50° C. under 80% humidity and in Fademeter (Type FAL-5, Suga Tester Co.) exposing for 3 hours, the stability of backgrounds, of the color images and anti-photo stability were determined by Macbeth Reflection Densitometer (Type RD-514, Ratten #106).

A short description of data set [2]: Photostability of developed image (Fademeter, Macbeth Reflection Densitometer). Particulars: reflection density, filter #106; for Photostability of developed image, After exposing: after Fademeter exposing for 3 hours; for Photostability of developed image, Before exposing: color developed at 150° C., before Fademeter.
Source text: as §1, §2, §3, §4, §5

Data set [3] deals with Salmonela strains (TA-100 and TA-1535) and E. coli (WP2uvrA). The data set can be described thus: Mutagenic activity, Ames test. Format: cell-based. Particulars: for increase of recovery mutation colony: 128-5000 μg/plate, metabolic activation (S9) and inactivation, all strains; for mutagenicity (conclusion of Ames test): with and without metabolic activation. On the procedure:
(§6) Mutagenic activity of the compound No. 1 in the invention and 4,4'-diglycidyldiphenylsulfone was evaluated by Ames test for using Salmonela strains (TA-100 and TA-1535) and E. coli (WP2uvrA) under conditions of metabolic activation and metabolic inactivation. The metabolic activation system was consisted of supernatant of 9000 G in centrifugation from rat liver homogenate (S9) mixture which was induced by 5,6-benzoflavone or phenobar bital, and a coenzyme. Both test compounds were prepared at concentration of 50 mg/mL by using dimethylformamide. Then, they were successively diluted to prepare lower concentration solutions by the same solvent. The concentration of each test substance is adjusted to be 128, 320, 800, 2000 and 5000 μg/plate. The test mixture of the bacteria, each test substance and sodium phosphate buffer solution (S9 mixture under the metabolic activation condition) was incubated at 37° C. for 20 minutes. After the incubation the mixture was added by soft agar solution containing minimum nutrients, homogeneously inoculated on an agar plate and incubated at 37° C. for 65 hours. […] It was concluded from the results that the compound No 1. was not mutagenic, but 4,4'-diglycidyldiphenylsulfone was mutagen.
Background: In the Ames test, an excess of revertant colonies over the control signals mutagenicity.

Data set [4] can be described thus: Deposited materials observed after incubation in Ames test. Particulars: both conditions of metabolic activation and inactivation. Format: physicochemical. On the procedure:
as §6

For `CC1(COc2ccc(S(=O)(=O)c3ccc(OCc4ccc(Cl)cc4)cc3)cc2)CO1` (stereo not drawn) [(4)], in data set [1], the “Stability of Background to heat and humidity, After exposing” value (from here on “Stability of Background … After exposing”) is listed as 0.09; the “Stability of Background to heat and humidity, Before exposing” value (“Stability of Background … Before exposing” below) is 0.07. In addition, in data set [2], the “Photostability of developed image, After exposing” value (“Photostability … After exposing” below) was 1.14 and the “Photostability of developed image, Before exposing” value (“Photostability … Before exposing” below) is 1.23.
`O=S(=O)(c1ccc(OCc2ccc(Cl)cc2)cc1)c1ccc(OCC2CO2)cc1` (stereo not drawn) [(2)]: in data set [1], the “Stability of Background … After exposing” value was 0.11; the “Stability of Background … Before exposing” value is reported as 0.07. In addition, in data set [2], the “Photostability … After exposing” value is 1.15 and the “Photostability … Before exposing” value was 1.23.
Consider `O=S(=O)(c1ccc(OCC2CO2)cc1)c1ccc(OCC2CO2)cc1` (stereo not drawn) [4,4'-diglycidyloxydiphenylsulfone, reference compound], for which the “increase of recovery mutation colony” value in data set [3] was “increases of recovery mutation colony were in all strains”. Further, the “mutagenicity (conclusion of Ames test)” value is “mutagenic” in data set [3] and “mutagen” in data set [3] (listed as 4,4'-diglycidyldiphenylsulfone). The “concentration above which deposited materials were observed” value in data set [4] is 320-800 μg/plate.
For `CC(C)Oc1ccc(S(=O)(=O)c2ccc(OCC3CO3)cc2)cc1` (stereo not drawn) [compound 1, 4-glycidyloxy-4'-isoprpoxydiphenylsulfone, reference compound], in data set [1], the “Stability of Background … After exposing” value stood at 0.17; the “Stability of Background … Before exposing” value was 0.07. For the same molecule, in data set [2], the “Photostability … After exposing” value was 1.00 and the “Photostability … Before exposing” value amounted to 1.19.
For the molecule `Cc1ccc(COc2ccc(S(=O)(=O)c3ccc(OCC4CO4)cc3)cc2)cc1` (stereo not drawn) [compound (5), 4-(4-methylbenzyloxy)-4'-glycidyloxydiphenylsulfone], in data set [1], the “Stability of Background … After exposing” value is 0.10; the “Stability of Background … Before exposing” value was 0.08. Also, in data set [2], the “Photostability … After exposing” value worked out at 1.12 and the “Photostability … Before exposing” value is reported as 1.20.
For the molecule `CC1(COc2ccc(S(=O)(=O)c3ccc(OCc4ccccc4Cl)cc3)cc2)CO1` (stereo not drawn) [(3)], in data set [1], the “Stability of Background … After exposing” value is on record as 0.10; the “Stability of Background … Before exposing” value came to 0.08. Besides, in data set [2], the “Photostability … After exposing” value is 1.09 and the “Photostability … Before exposing” value was found to be 1.22.
For `C=CCOc1ccc(S(=O)(=O)c2ccc(OCC3CO3)cc2)cc1` (stereo not drawn) [(7)], in data set [1], the “Stability of Background … After exposing” value amounted to 0.07; the “Stability of Background … Before exposing” value worked out at 0.07. Moreover, in data set [2], the “Photostability … After exposing” value is on record as 1.12 and the “Photostability … Before exposing” value was found to be 1.21.
`CC1(COc2ccc(S(=O)(=O)c3ccc(OCc4ccccc4)cc3)cc2)CO1` (stereo not drawn) [compound (1), 4-benzyloxy-4'-(2-methylglycidyloxy)diphenylsulfone]: in data set [1], the “Stability of Background … After exposing” value is recorded as 0.07; the “Stability of Background … Before exposing” value turned out to be 0.06. Besides, in data set [2], the “Photostability … After exposing” value is given as 1.13 and the “Photostability … Before exposing” value is on record as 1.21. Besides, the “increase of recovery mutation colony” value in data set [3] was “No increase of recovery mutation colony was observed in any strain”. Besides, in data set [3] (listed as compound No. 1), the “mutagenicity (conclusion of Ames test)” value was “not mutagenic”. Further, in data set [4], the “concentration above which deposited materials were observed” value is given as above 800 μg/plate.
Consider `Cc1ccc(COc2ccc(S(=O)(=O)c3ccc(OCC4(C)CO4)cc3)cc2)cc1` (stereo not drawn) [(6)], for which, in data set [1], the “Stability of Background … After exposing” value is reported as 0.12; the “Stability of Background … Before exposing” value is on record as 0.09. Also, in data set [2], the “Photostability … After exposing” value was found to be 1.16 and the “Photostability … Before exposing” value was 1.22.

Values taken from US5340788A, “Diphenylsulfone derivatives and heat sensitive recording materials” (Nippon Soda Co., Ltd., priority 1990, dated 1994).
